From patent publication US8134015B2, “Compound inhibiting in vivo phosphorous transport and medicine containing the same” (Kyowa Hakko Kirin Co., Ltd., priority 2003, dated 2012)

Each compound was assayed against T1, rat NaPi-2b (Rattus norvegicus, UniProt Q9JJ09) (assay: Sodium-dependent phosphate uptake of Xenopus oocytes which expressed NaPi-2b (32P)). Conditions: Xenopus oocytes expressing rat NaPi-2b, 32P radioactive phosphorus; read-out: IC50 (phosphate uptake inhibitory activity).
T1 construct: expressed in transfected cells; host or cells: Xenopus oocytes injected with cRNA
T1 sequence (Q9JJ09 1-695): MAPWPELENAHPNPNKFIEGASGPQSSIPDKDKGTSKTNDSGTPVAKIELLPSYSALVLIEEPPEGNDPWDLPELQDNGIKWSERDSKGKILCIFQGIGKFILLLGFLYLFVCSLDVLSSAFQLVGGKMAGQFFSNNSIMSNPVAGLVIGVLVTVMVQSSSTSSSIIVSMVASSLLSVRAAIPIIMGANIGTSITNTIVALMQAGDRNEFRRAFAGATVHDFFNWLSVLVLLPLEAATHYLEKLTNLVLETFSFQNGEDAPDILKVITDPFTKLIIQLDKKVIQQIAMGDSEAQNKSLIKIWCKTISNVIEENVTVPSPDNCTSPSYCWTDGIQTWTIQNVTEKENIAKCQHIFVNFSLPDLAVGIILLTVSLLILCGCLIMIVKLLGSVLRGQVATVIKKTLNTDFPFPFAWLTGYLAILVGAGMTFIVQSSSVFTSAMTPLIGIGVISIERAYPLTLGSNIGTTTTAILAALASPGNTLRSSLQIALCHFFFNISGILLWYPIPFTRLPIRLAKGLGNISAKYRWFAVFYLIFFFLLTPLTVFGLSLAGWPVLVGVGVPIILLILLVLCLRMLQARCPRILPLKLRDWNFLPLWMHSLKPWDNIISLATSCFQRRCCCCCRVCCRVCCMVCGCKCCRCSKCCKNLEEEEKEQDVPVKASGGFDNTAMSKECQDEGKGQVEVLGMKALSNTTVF
Format: cell-based
Description: Pharmacological Test Example 1
Experiment of Sodium-Dependent Phosphate Uptake of Xenopus oocytes which Expressed NaPi-2b
Degenerate primers were prepared from sequences of mouse NaPi-2b disclosed in Hilfiker H. et al., Pro Natl Acad Sci USA, 95 (24): 14564-14569, […] and sequences of human and rat NaPi-2a disclosed in Magagnin S. et al., Proc Natl Aca Sci USA, 90 (13): 5979-5983, 1993. RNA was extracted from the rat small intestine using ISOGEN; manufactured by NIPPON GENE CO., LTD (Japan). 400 bp gene fragments were obtained by PCR using, as a template, a cDNA library prepared with a cDNA synthesis kit (manufactured by STRATAGENE (US)). Thereafter, the above rat small intestine cDNA library was screened using the gene fragment as a probe, and the whole gene sequence of rat NaPi-2b was cloned. cRNA was synthesized from the cloned rat NaPi-2b cDNA with a cRNA synthesis kit (manufactured by Ambion (US)). The synthesized cRNA was injected into Xenopus oocytes (obtained from COPACETIC (Japan)) with a liquid microinjector (manufactured by Drummond (US)) and was cultured for 2 days to express rat NaPi-2b. Thereafter, for a group of derivatives, phosphate uptake inhibitory activity were measured using the Xenopus oocytes with ^32P radioactive phosphorus (manufactured by Daiichi Kagaku Inc. (Japan)). […] The inhibitory activity for 300 μM and 100 μM was determined from the same inhibition curve and expressed in percentage inhibition (%) in Table 5.

| IC50 [µM] | SMILES |
| --- | --- |
| 7.15 | COc1ccc(C(=O)Nc2ccccc2C(=O)N/N=C/c2ccccc2C)cc1OC [Compound 3, 3,4-Dimethoxy-N-[2-(2-methyl-benzylidene-hydrazinocarbonyl)-phenyl]-benzamide] |
| 79.9 | COc1ccccc1/C=N/NC(=O)c1ccccc1NC(=O)c1ccc(OC)c(OC)c1 [Compound 4, 3,4-Dimethoxy-N-[2-(2-methoxy-benzylidene-hydrazinocarbonyl)-phenyl]-benzamide] |
| 3.31 | COc1cccc(/C=N/NC(=O)c2ccccc2NC(=O)c2ccc(OC)c(OC)c2)c1 [Compound 5, 3,4-Dimethoxy-N-[2-(3-methoxy-benzylidene-hydrazinocarbonyl)-phenyl]-benzamide] |
| 5.38 | COc1ccc(C(=O)Nc2ccccc2C(=O)N/N=C/c2cc(C(C)(C)C)c(O)c(C(C)(C)C)c2)cc1OC [Compound 6, N-[2-(3,5-Di-tert-butyl-4-hydroxy-benzylidene-hydrazinocarbonyl)-phenyl]-3,4-dimethoxy-benzamide] |
| 7.15 | COc1ccc(C(=O)Nc2ccccc2C(=O)N/N=C/C(C)=C/c2ccccc2)cc1OC [Compound 7, 3,4-Dimethoxy-N-[2-(2-methyl-3-phenyl-allylidene-hydrazinocarbonyl)-phenyl]-benzamide] |
| 1.72 | COc1ccc(C(=O)Nc2ccccc2C(=O)N/N=C/c2cc(C(F)(F)F)cc(C(F)(F)F)c2)cc1OC [Compound 8, N-[2-(3,5-Bis-trifluoromethyl-benzylidene-hydrazinocarbonyl)-phenyl]-3,4-dimethoxy-benzamide] |
| 4.26 | COc1ccc(C(=O)Nc2ccccc2C(=O)N/N=C/c2cccc(C#N)c2)cc1OC [Compound 9, N-[2-(3-Cyano-benzylidene-hydrazinocarbonyl)-phenyl]-3,4-dimethoxy-benzamide] |
| 26.1 | COc1ccc(C(=O)Nc2ccccc2C(=O)N/N=C/c2ccccc2Br)cc1OC [Compound 10, N-[2-(2-Bromo-benzylidene-hydrazinocarbonyl)-phenyl]-3,4-dimethoxy-benzamide] |
| 8.21 | COc1cc(/C=N/NC(=O)c2ccccc2NC(=O)c2ccc(OC)c(OC)c2)ccc1O [Compound 11, N-[2-(4-Hydroxy-3-methoxy-benzylidene-hydrazinocarbonyl)-phenyl]-3,4-dimethoxy-benzamide] |
| 4.51 | COc1ccc(C(=O)Nc2ccccc2C(=O)N/N=C/c2cc(OC)c(OC)c(OC)c2)cc1OC [Compound 12, 3,4-Dimethoxy-N-[2-(3,4,5-trimethoxy-benzylidene-hydrazinocarbonyl)-phenyl]-benzamide] |
| 9.22 | COc1ccc(C(=O)Nc2ccc(Br)cc2C(=O)N/N=C/C=C/c2ccccc2)cc1OC [Compound 13, N-[4-Bromo-2-(3-phenyl-allylidene-hydrazinocarbonyl)-phenyl]-3,4-dimethoxy-benzamide] |
| 12.1 | COc1ccc(C(=O)Nc2ccc(Br)cc2C(=O)N/N=C/c2ccccc2Br)cc1OC [Compound 14, N-[4-Bromo-2-(2-bromo-benzylidene-hydrazinocarbonyl)-phenyl]-3,4-dimethoxy-benzamide] |
| 1.41 | COc1ccc(C(=O)Nc2ccccc2C(=O)N/N=C/c2cccc(F)c2)cc1OC [Compound 15, N-[2-(3-Fluoro-benzylidene-hydrazinocarbonyl)-phenyl]-3,4-dimethoxy-benzamide] |
| 2.3 | COc1ccc(C(=O)Nc2ccccc2C(=O)N/N=C/c2ccc(F)cc2)cc1OC [Compound 16, N-[2-(4-Fluoro-benzylidene-hydrazinocarbonyl)-phenyl]-3,4-dimethoxy-benzamide] |
| 3.59 | COc1ccc(C(=O)Nc2ccccc2C(=O)N/N=C/c2ccccc2)cc1OC [Compound 17, N-[2-(Benzylidene-hydrazinocarbonyl)-phenyl]-3,4-dimethoxy-benzamide] |
| 4.03 | COc1ccc(C(=O)Nc2ccccc2C(=O)N/N=C/c2cccc(O)c2)cc1OC [Compound 18, N-[2-(3-Hydroxy-benzylidene-hydrazinocarbonyl)-phenyl]-3,4-dimethoxy-benzamide] |

| IC50 [µM] | SMILES |
| --- | --- |
| 8.16 | COc1ccc(C(=O)Nc2ccccc2C(=O)N/N=C/c2ccc(O)cc2)cc1OC [Compound 19, N-[2-(4-Hydroxy-benzylidene-hydrazinocarbonyl)-phenyl]-3,4-dimethoxy-benzamide] |
| 2.83 | COc1ccc(C(=O)Nc2ccccc2C(=O)N/N=C/c2cccc(C)c2)cc1OC [Compound 20, 3,4-Dimethoxy-N-[2-(3-methyl-benzylidene-hydrazinocarbonyl)-phenyl]-benzamide] |
| 21.5 | COc1ccc(C(=O)Nc2ccccc2C(=O)N/N=C/c2ccco2)cc1OC [Compound 21, N-[2-(Furan-2-ylmethylene-hydrazinocarbonyl)-phenyl]-3,4-dimethoxy-benzamide] |
| 26.7 | COc1ccc(C(=O)Nc2ccccc2C(=O)N/N=C/c2ccc(C)o2)cc1OC [Compound 22, 3,4-Dimethoxy-N-[2-(5-methyl-furan-2-ylmethylene-hydrazinocarbonyl)-phenyl]-benzamide] |
| 9.88 | COc1ccc(C(=O)Nc2ccccc2C(=O)N/N=C/c2cccs2)cc1OC [Compound 23, 3,4-Dimethoxy-N-[2-(thiophen-2-ylmethylene-hydrazinocarbonyl)-phenyl]-benzamide] |
| 20.9 | COc1ccc(C(=O)Nc2ccccc2C(=O)N/N=C/c2ccsc2)cc1OC [Compound 24, 3,4-Dimethoxy-N-[2-(thiophen-3-ylmethylene-hydrazinocarbonyl)-phenyl]-benzamide] |
| 23.9 | COc1ccc(C(=O)Nc2ccccc2C(=O)N/N=C/c2ccc(O)cc2O)cc1OC [Compound 25, N-[2-(2,4-Dihydroxy-benzylidene-hydrazinocarbonyl)-phenyl]-3,4-dimethoxy-benzamide] |
| 25.4 | COc1ccc(C(=O)Nc2ccccc2C(=O)N/N=C/c2ccc(O)c(O)c2)cc1OC [Compound 26, N-[2-(3,4-Dihydroxy-benzylidene-hydrazinocarbonyl)-phenyl]-3,4-dimethoxy-benzamide] |
| 3.63 | O=C(Nc1ccccc1C(=O)N/N=C/c1ccccc1)c1ccccc1F [Compound 27, N-[2-(Benzylidene-hydrazinocarbonyl)-phenyl]-2-fluoro-benzamide] |
| 5.12 | COc1ccc(C(=O)Nc2ccc(Br)cc2C(=O)N/N=C/c2ccccc2F)cc1OC [Compound 28, N-[4-Bromo-2-(2-fluoro-benzylidene-hydrazinocarbonyl)-phenyl]-3,4-dimethoxy-benzamide] |
| 7.86 | COc1ccc(C(=O)Nc2ccc(Br)cc2C(=O)N/N=C/c2ccccc2C)cc1OC [Compound 30, N-[4-Bromo-2-(2-methyl-benzylidene-hydrazinocarbonyl)-phenyl]-3,4-dimethoxy-benzamide] |
| 0.58 | COc1ccc(C(=O)Nc2ccc(Br)cc2C(=O)N/N=C/c2cccc(C)c2)cc1OC [Compound 31, N-[4-Bromo-2-(3-methyl-benzylidene-hydrazinocarbonyl)-phenyl]-3,4-dimethoxy-benzamide] |
| 1.95 | COc1ccc(C(=O)Nc2ccccc2C(=O)N/N=C/c2ccc(F)c(Cl)c2)cc1OC [Compound 32, N-[2-(3-Chloro-4-fluoro-benzylidene-hydrazinocarbonyl)-phenyl]-3,4-dimethoxy-benzamide] |
| 15 | COc1ccc(C(=O)Nc2ccccc2C(=O)N/N=C/c2ccc(OC(F)(F)F)cc2)cc1OC [Compound 33, 3,4-Dimethoxy-N-[2-(4-trifluoromethoxy-benzylidene-hydrazinocarbonyl)-phenyl]-benzamide] |
| 1.5 | COc1ccc(/C=N/NC(=O)c2ccccc2NC(=O)c2ccc(OC)c(OC)c2)cc1Br [Compound 34, N-[2-(3-Bromo-4-methoxy-benzylidene-hydrazinocarbonyl)-phenyl]-3,4-dimethoxy-benzamide] |

Same assay, conditions: phosphate uptake, oocytes expressing rat NaPi-2b; 300 μM, determined from inhibition curve

| inhibition at 300 µM [%] | SMILES |
| --- | --- |
| 77.3 | COc1ccc(C(=O)Nc2ccccc2C(=O)N/N=C/c2ccccc2F)cc1OC [Compound 2, N-[2-(2-Fluoro-benzylidene-hydrazinocarbonyl)-phenyl]-3,4-dimethoxy-benzamide] |
